# Experimental data published in patent publication US6340670B1, “Acetal benzylmaltosides as inhibitors of smooth muscle cell proliferation” (American Home Products Corporation, priority 1998, dated 2002).
# pIC50: −log10 of the molar value.
# System: Porcine Smooth Muscle Cell
# Assay: Effects of Compounds on Cell Proliferation Using 3H Thymidine Incorporation
# Format: cell-based
# Conditions: for pIC50: serum/growth factor stimulated cells, 24-36 h incubation, read-out: Porcine Smooth Muscle Cell Antiproliferation IC50
# Description: Effects of Compounds on Cell Proliferation Using ^3H Thymidine Incorporation
# Human and porcine smooth muscle cells were tested in early passage (generally passage 3-7) at sub-confluent conditions. Cultures were grown in 16 mm (24 well) multi-well culture dishes in medium 199 supplemented with 10% fetal bovine serum and 2% antibiotic/antimycotic. At sub-confluence, the cells were placed in a defined serum free medium (AIM-V; Gibco) for 24-48 h prior to initiating the experimental protocol.
# Compounds were added to each well at 50 fold dilution (20 μL/well) and the plates were incubated for 24-36 h at 37° C. in 5% CO2. Compounds were initially dissolved in 50% ethanol and serially diluted into media. Compounds were routinely evaluated at concentrations from 1 to 100 μM. As a control, grade II porcine intestinal mucosal heparin (sodium salt) was routinely evaluated in all cell preparations at concentrations from 0.1 to 100 μg/mL.
# At the completion of the test procedure, plates were placed on ice, washed three times with ice cold phosphate buffered saline (PBS) and incubated in ice cold 10% trichloroacetic acid (TCA) got 30 min to remove acid soluble proteins. Solution was transferred to scintillation vials containing 0.4 N HCl (500 μL/vial to neutralize NaOH) and each well was rinsed two times with water (500 μL) for a total volume of 2 mL/vial.
# Data was obtained, in triplicate, for both control and experimental samples. Control (100%) data was obtained from maximally stimulated cells, as the result of growth factor or serum stimulation. Experimental data was obtained from cells maximally stimulated with growth factor or serum and treated with compound. Data are expressed as an IC50 or percent inhibition in Table I below.
Molecule,pIC50,"Porcine Smooth Muscle Cell Antiproliferation, percent inhibition (@ 50 μM, control (100%) = maximally stimulated cells) [% @ 50]"
"CC(=O)Nc1cc(COC2OC(COC(=O)c3ccc(Cl)c([N+](=O)[O-])c3)C(OC3OC4COC(c5ccccc5)OC4C(O)C3OC(C)=O)C(OC(C)=O)C2OC(C)=O)ccc1Cl [Example 39, N-{5-[(2,2′,3,-Tri-O-Acetyl-6-O-(4-chloro-3-nitrobenzoyl)-4′,6′-O-(benzylidene)-β-D-maltosyl)-oxymethyl]-2-chloro-phenyl)-acetamide]",5.60,
"CCC1OCC2OC(OC3C(COC(=O)c4ccccc4)OC(OCc4ccc(Cl)c(NC(C)=O)c4)C(O)C3O)C(O)C(O)C2O1 [Example 5, N-{5-[(6-O-Benzoyl-4′,6′-O-propylidene-β-D-maltosyl)-oxy-methyl]-2-chloro-phenyl}-acetamide]",7.43,
"C=CCCC(=O)Nc1cc(CO[C@@H]2O[C@H](COC(=O)c3ccccc3)[C@@H](O[C@H]3O[C@@H]4COC(c5ccccc5)O[C@H]4[C@H](O)[C@H]3O)[C@H](O)[C@H]2O)ccc1Cl (stereo partly drawn) [Example 66, N-{2-Chloro-5-[(6-O-benzoyl-4′,6′-O-benzilidene-β-D-maltosyl)-oxy-methyl]-phenyl}-pent-4-enamide]",6.74,
"CC(=O)Nc1cc(CO[C@@H]2O[C@H](COC(=O)c3ccccc3)[C@@H](O[C@@H]3O[C@@H]4CO[C@@H](c5ccccc5)O[C@H]4[C@H](OC(C)=O)[C@H]3OC(C)=O)[C@H](OC(C)=O)[C@H]2OC(C)=O)ccc1Cl [Example 27, (R)-N-[2-Chloro-5-[[[2,3-di-O-acetyl-6-O-benzoyl-4-O-[2,3-di-O-acetyl-4,6-O-(phenylmethylene)-β-D-glucopyranoysl]-β-D-glucopyranosyl]oxy]-methyl]-phenyl]acetamide]",7.15,
"CCOCC[C@@H]1OC[C@H]2O[C@H](O[C@H]3[C@H](O)[C@@H](O)[C@H](OCc4ccc(Cl)c(NC(C)=O)c4)O[C@@H]3CO)[C@H](O)[C@@H](O)[C@@H]2O1 [Example 20, N-{2-Chloro-5-[(4′,6′-O-((1R)-3-ethoxy-propylidene)-β-D-maltosyloxy)-methyl]-phenyl}-acetamide]",,48
"C=CCCC(=O)Nc1cc(COC2OC(CO)C(OC3OC4COC(c5ccccc5)OC4C(O)C3O)C(O)C2O)ccc1Cl [Example 65, N-{2-Chloro-5-[(4′,6′-O-benzylidene-β-D-maltosyl)-oxy-methyl]-phenyl}-pent-4-enamide]",4.75,
"CC(=O)Nc1cc(COC2OC(CO)C(OC3OC4COC(c5ccc([N+](=O)[O-])cc5)OC4C(O)C3O)C(O)C2O)ccc1Cl [Example 10, N-(2-Chloro-5-{[4′,6′-O-(4-nitro)-benzylidene-β-D-maltosyl]-oxy-methyl}-phenyl)-acetamide]",4.72,
"CC(=O)Nc1cc(COC2OC(CO)C(OC3OC4COC(c5ccc(Cl)cc5)OC4C(O)C3O)C(O)C2O)ccc1Cl [Example 12, N-{2-Chloro-5-[(4′,6′-O-(4-chloro)-benzylidene-β-D-maltosyl)-oxy-methyl]-phenyl}-acetamide]",4.53,
"CC(=O)Nc1cc(CO[C@@H]2O[C@H](COC(=O)c3ccccc3)[C@@H](O[C@H]3O[C@@H]4COC(c5ccc([N+](=O)[O-])cc5)O[C@H]4[C@H](O)[C@H]3O)[C@H](O)[C@H]2O)ccc1Cl (stereo partly drawn) [Example 11, N-(5-{[6-O-Benzoyl-4′,6′-O-(4-nitro)-benzylidene-β-D-maltosyl]-oxy-methyl}-2-chloro-phenyl)-acetamide]",8.52,
"CC(=O)Nc1cc(COC2OC(CO)C(OC3OC4COC(Cc5ccccc5)OC4C(O)C3O)C(O)C2O)ccc1Cl [Example 16, N-{5-[(4′,6′-O-((1R)-2-Phenyl-ethylidene)-β-D-maltosyloxy)-methyl]-2-chloro-phenyl}-acetamide]",4.79,
"CC(=O)Nc1cc(CO[C@@H]2O[C@H](COc3ccccc3)[C@@H](O[C@H]3O[C@@H]4COC(c5ccccc5)O[C@H]4[C@H](O)[C@H]3O)[C@H](O)[C@H]2O)ccc1Cl (stereo partly drawn) [Example 60, N-{5-[(4′,6′-O-Benzylidene-6-O-phenyl-β-D-maltosyl)-oxy-methyl]-2-chloro-phenyl}-acetamide]",7.42,
"O=C(Nc1cc(COC2OC(COC(=O)c3ccc(I)cc3)C(OC3OC4COC(c5ccccc5)OC4C(O)C3O)C(O)C2O)ccc1Cl)c1ccc(C(=O)c2ccccc2)cc1 [Example 74, 4-Benzoyl-N-{5-[(4′,6′-O-benzylidene-6-(4-iodo-benzoyl)-oxy-β-D-maltosyl)-oxy-methyl]-2-chloro-phenyl}-benzoic acid amide]",5.91,
"N-{5-[(6-O-Benzyl-4′,6′-O-ethylidene-β-D-maltosyl)-oxy-methyl]-2-chloro-phenyl}-acetamide [Example 9]",7.08,
"CCOCCC1OCC2OC(OC3C(COC(=O)c4ccccc4)OC(OCc4ccc(Cl)c(NC(C)=O)c4)C(O)C3O)C(O)C(O)C2O1 [Example 21, N-{5-{[6-O-Benzoyl-4′,6′-O-((1R)-3-ethoxypropylidene)-β-D-maltosyloxy]-methyl}-2-chloro-phenyl}-acetamide]",7.21,
"O=C(Nc1cc(COC2OC(CO)C(OC3OC4COC(c5ccccc5)OC4C(O)C3O)C(O)C2O)ccc1Cl)c1cccnc1 [Example 61, (R)-N-[2-Chloro-5-[[[4-O-[4′,6′-O-(phenylmethylene)-α-D-glucopyranosyl]-β-D-glucopyranosyl]oxy]methyl]phenyl]-3-pyridinecarboxamide]",4.86,
"CC(=O)Nc1cc(COC2OC(COC(=O)c3ccccc3)C(OC3OC4COC(Cc5ccccc5)OC4C(O)C3O)C(O)C2O)ccc1Cl [Example 17, N-{5-[(6-O-Benzoyl-4′,6′-O-((1R)-2-phenyl-ethylidene)-β-D-maltosyloxy)-methyl]-2-chloro-phenyl}-acetamide]",7.46,
"CC(=O)Nc1cc(COC2OC(COC(=O)c3ccc(I)cc3)C(OC3OC4COC(c5ccccc5)OC4C(O)C3O)C(O)C2O)ccc1Cl [Example 45, N-{5-[(4′,6′-O-Benzylidene-6-(4-iodo-benzoyl)-oxy-β-D-maltosyl)-oxy-methyl]-2-chloro-phenyl}-acetamide]",5.19,
"O=C(Nc1cc(CO[C@@H]2O[C@H](COC(=O)c3ccccc3)[C@@H](O[C@H]3O[C@@H]4CO[C@@H](c5ccccc5)O[C@H]4[C@H](O)[C@H]3O)[C@H](O)[C@H]2O)ccc1Cl)c1cccnc1 [Example 62, (R)-N-[5-[[[6-O-Benzoyl-4-O-[4′,6′-O-(phenylmethylene)-α-D-glucopyranosyl]-β-D-glucopyranosyl]oxy]methyl]-2-chlorophenyl]-3-pyridinecarboxamide]",7.64,
"CC(=O)Nc1cc(COC2OC(CO)C(OC3OC4COC(c5ccccc5)OC4C(O)C3O)C(O)C2O)ccc1C [Example 57, N-{5-[(4′,6′-O-Benzylidene-β-D-maltosyl)-oxy-methyl]-2-methyl-phenyl}-acetamide]",5.05,
"O=C(Nc1cc(COC2OC(COC(=O)c3cccc(I)c3)C(OC3OC4COC(c5ccccc5)OC4C(O)C3O)C(O)C2O)ccc1Cl)c1ccc(C(=O)c2ccccc2)cc1 [Example 73, 4-Benzoyl-N-{5-[(4′,6′-O-benzylidene-6-O-(3-iodo-benzoyl)-β-D-maltosyl)-oxy-methyl]-2-chloro-phenyl}-benzamide]",6.88,
"CC(=O)Nc1cc(CO[C@@H]2O[C@H](COC(=O)CCc3ccccc3)[C@@H](O[C@H]3O[C@@H]4COC(c5ccccc5)O[C@H]4[C@H](O)[C@H]3O)[C@H](O)[C@H]2O)ccc1Cl (stereo partly drawn) [Example 48, N-{5-[(4′,6′-O-Benzylidene-6-O-phenyl-ethyl-carboxyl-β-D-maltosyl)-oxy-methyl]-2-chloro-phenyl}-acetamide]",8.15,
"CC(=O)N(C)c1cc(COC2OC(COC(=O)c3ccccc3)C(OC3OC4COC(c5ccccc5)OC4C(O)C3O)C(O)C2O)ccc1Cl [Example 79, N-{5-[(6-O-Benzoyl-4′,6′-O-benzylidene-β-D-maltosyl)-oxymethyl]-2-chloro-phenyl}-N-methyl-acetamide]",5.63,
"CC(=O)Nc1cc(COC2OC(COC(=O)Cc3ccccc3)C(OC3OC4COC(c5ccccc5)OC4C(OC(C)=O)C3OC(C)=O)C(OC(C)=O)C2OC(C)=O)ccc1Cl [Example 47, (R)-N-[2-Chloro-5-[[[2,3-di-O-acetyl-4-O-[2,3-di-O-acetyl-4,6-O-(phenylmethylene)-α-D-glucopyranosyl]-6-O-(phenylacetyl)-β-D-glucopyranosyl]-oxy]methyl]phenyl]acetamide]",7.11,
"CC(=O)Nc1cc(COC2OC(COCc3ccccc3)C(OC3OC4COC(c5ccccc5)OC4C(O)C3O)C(O)C2O)ccc1Cl [Example 8, N-{5-[(6-O-Benzyl-4′,6′-O-benzylidene-β-D-maltosyl)-oxy-methyl]-2-chloro-phenyl}-acetamide]",9.00,
"CC(=O)Nc1cc(COC2OC(COS(=O)(=O)c3ccc(C)cc3)C(OC3OC4COC(c5ccccc5)OC4C(O)C3O)C(O)C2O)ccc1C [Example 59, N-(5-{[4′,6′-O-Benzylidene-6-O-(4-toluenesulfonyl)-β-D-maltosyl]-oxy-methyl}-2-methyl-phenyl)-acetamide]",6.31,
"CC(=O)Nc1cc(COC2OC(COS(=O)(=O)c3ccc(C)cc3)C(OC3OC4COC(c5ccccc5)OC4C(OC(C)=O)C3OC(C)=O)C(OC(C)=O)C2OC(C)=O)ccc1Cl [Example 7, N-(5-{[2,32′,3′-Tetra-O-acetyl-4′,6′-O-benzylidene-6-O-(4-toluenesulfonyl)-β-D-maltosyl]-oxy-methyl}-2-chloro-phenyl)-acetamide]",7.06,
